Tests used:
Experiment in all cases: Example B2 herbicidal action, post-emergence, pots in glasshouse, damage score 0-10
Format in all cases: in vivo
Details in all cases: application post-emergence, rate 1000 g/ha, evaluated after 13 days
[1] = system: Setaria faberi
Protocol: (§1) Seeds of a variety of test species were sown in standard soil in pots. After 8 days cultivation (post-emergence) under controlled conditions in a glasshouse (at 24/16° C., day/night; 14 hours light; 65% humidity), the plants were sprayed with an aqueous spray solution derived from the formulation of the technical active ingredient in acetone/water (50:50) solution containing 0.5% Tween 20 (polyoxyethelyene sorbitan monolaurate, CAS RN 9005-64-5). The test plants were then grown in a glasshouse under controlled conditions in a glasshouse (at 24/16° C., day/night; 14 hours light; 65% humidity) and watered twice daily. After 13 days, the test was evaluated (10=total damage to plant; 0=no damage to plant).

[2] = system: Ipomea hederaceae
Protocol: as §1

[3] = system: Amaranthus retroflexus
Protocol: as §1

[4] = system: Echinochloa crus-galli
Protocol: as §1

[5] = system: Solanum nigrum
Protocol: as §1

| Structure (SMILES) | SETFA damage score (10=total damage to plant; 0=no damage to plant) [1] | IPOHE damage score (10=total damage to plant; 0=no damage to plant) [2] | AMARE damage score (10=total damage to plant; 0=no damage to plant) [3] | ECHCG damage score (10=total damage to plant; 0=no damage to plant) [4] | SOLNI damage score (10=total damage to plant; 0=no damage to plant) [5] |
| --- | --- | --- | --- | --- | --- |
| CC(C)(C)C(=O)OC1=C(c2c(Cl)cccc2Cl)S(=O)(=O)N(CC(F)F)c2nccnc21 [Compound C28] | 2 | 6 | 7 | 2 | 6 |
| O=S1(=O)C(c2cc(F)c(Cl)cc2Cl)=C(O)c2nccnc2N1CC(F)F [Compound D25] | 4 | 9 | 10 | 3 | 10 |
| COc1ccc(Cl)c(C2=C(OC(=O)C(C)C)c3nccnc3N(CC(F)F)S2(=O)=O)c1F [Compound C143] | 0 | 8 | 1 | 4 | 10 |
| CC(C)C(=O)OC1=C(c2cccc(C(F)(F)F)c2Cl)S(=O)(=O)N(CC(F)F)c2nccnc21 [Compound C73] | 2 | 7 | 7 | 2 | 7 |
| CCSC(=O)OC1=C(c2cc(Cl)ccc2C(F)(F)F)S(=O)(=O)N(CC)c2nccnc21 [Compound C109] | 2 | 9 | 5 | 5 | 8 |
| CCOC(=O)OC1=C(c2cc(Cl)cc(C(F)(F)F)c2)S(=O)(=O)N(CC(F)F)c2nccnc21 [Compound C124] | 0 | 2 | 10 | 0 | 2 |
| CCN1c2nccnc2C(O)=C(c2ccccc2OC(F)(F)F)S1(=O)=O [Compound D5] | 6 | 9 | 10 | 4 | 10 |
| CCSC(=O)OC1=C(c2ccccc2I)S(=O)(=O)N(CC(F)F)c2nccnc21 [Compound C82] | 8 | 10 | 10 | 9 | 10 |
| O=S1(=O)C(c2cc(C(F)(F)F)ccc2C(F)(F)F)=C(O)c2nccnc2N1CC(F)F [Compound D22] | 6 | 10 | 10 | 7 | 10 |
| O=S1(=O)C(c2cc(I)ccc2Cl)=C(O)c2nccnc2N1CC(F)F [Compound D29] | 3 | 7 | 5 | 2 | 7 |
| CCN1c2nccnc2C(O)=C(c2c(Cl)cccc2C(F)(F)F)S1(=O)=O [Compound D6] | 5 | 9 | 10 | 7 | 10 |
| CC(C)(C)C(=O)OC1=C(c2cc(-c3cccc(Cl)c3)ccc2Cl)S(=O)(=O)N(CC(F)F)c2nccnc21 [Compound C56] | 0 | 0 | 10 | 0 | 2 |
| CC#CCN1c2nccnc2C(OC(=O)C(C)(C)C)=C(c2c(Cl)ccc(Cl)c2C(F)(F)F)S1(=O)=O [Compound C96] | 0 | 4 | 0 | 1 | 7 |
| O=S1(=O)C(c2c(F)ccc(Br)c2Cl)=C(O)c2nccnc2N1CC(F)F [Compound D14] | 5 | 9 | 9 | 7 | 9 |
| C#CCN1c2nccnc2C(O)=C(c2c(Cl)ccc(Cl)c2C(F)(F)F)S1(=O)=O [Compound D45] | 6 | 8 | 8 | 6 | 9 |
| CCN1c2nccnc2C(O)=C(c2cc(F)c(Cl)cc2Cl)S1(=O)=O [Compound D23] | 2 | 9 | 8 | 2 | 8 |
| COCN1c2nccnc2C(OC(=O)C(C)(C)C)=C(c2ccc(Cl)cc2Cl)S1(=O)=O [Compound C11] | 4 | 2 | 1 | 3 | 6 |
| O=S1(=O)C(c2ccccc2I)=C(O)c2nccnc2N1CC(F)F [Compound D44] | 6 | 10 | 10 | 9 | 10 |
| CCN1c2nccnc2C(O)=C(c2cc(C(F)(F)F)ccc2C(F)(F)F)S1(=O)=O [Compound D24] | 1 | 10 | 6 | 3 | 10 |
| C=CCN1c2nccnc2C(OC(=O)SCC)=C(c2cc(Cl)ccc2C(F)(F)F)S1(=O)=O [Compound C119] | 3 | 3 | 3 | 5 | 6 |

From patent US8133849B2, “Herbicidal compounds” (Syngenta Limited, priority 2007, dated 2012)
